In brackets after ≈: the same amount, converted by molar mass. Like-named read-outs stand apart in the source and are kept apart here.
What was measured:
[1] = tested on: Cryptococcus neoformans; assay: checkerboard drug interaction (FICI, MICc);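 as to all read-outs here: antifungal plus FPPS inhibitor pairs tested against Cryptococcus neoformans by simplified diagonal checkerboard screening, FICI computed under the Loewe additivity model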; assay type: cell-based; conditions: C. neoformans; for INH FD (MIC-MICc fold decrease): fold decrease of inhibitor MIC
Method: (§1) Drug interactions between antifungals and FPPS inhibitors were investigated using a simplified checkerboard diagonal screening method ([45]). […] FICIs were determined according to the Loewe additivity model ([17]).

[2] = tested on: Cryptococcus deuterogattii; assay: MIC/MFC broth microdilution (CLSI); conditions: Cryptococcus deuterogattii;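 also: broth microdilution per CLSI M27-Ed4. MFC is the lowest concentration yielding no colonies when MIC broths are subcultured onto SDA plates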
Method: (§2) Antifungal susceptibility was determined by broth microdilution according to the CLSI guidelines described in M27-Ed4 ([16]). […] MFC was determined by back-plating drug-treated cultures from MIC broths onto SDA plates. The MFC was defined as the lowest concentration from which no colonies could be cultured.

[3] = tested on: Saccharomyces cerevisiae; assay: MIC/MFC broth microdilution (CLSI); assay type: cell-based; conditions: Saccharomyces cerevisiae S288c
Method: as §2

[4] = tested on: Candida glabrata; assay: checkerboard drug interaction (FICI, MICc);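 as to all read-outs here: simplified diagonal checkerboard screen pairing antifungals with FPPS inhibitors, FICI calculated under the Loewe additivity model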; assay type: cell-based; conditions: C. glabrata; for INH FD (MIC-MICc fold decrease): fold decrease of inhibitor MIC
Method: as §1

[5] = tested on: Candida albicans; assay: MIC/MFC broth microdilution (CLSI); assay type: cell-based; conditions: Candida albicans SC5314
Method: as §2

[6] = tested on: Saccharomyces cerevisiae; assay: checkerboard drug interaction (FICI, MICc); assay type: cell-based; set-up: INH MICc / INH MICc (ITR:INH) / INH MICc (KET:INH) / INH MICc (FLC:INH): unit not given beside the values;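 also: simplified diagonal checkerboard screen pairing antifungals with FPPS inhibitors, FICI calculated under the Loewe additivity model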
[7] = tested on: Aspergillus fumigatus; assay: checkerboard drug interaction (FICI, MICc); assay type: cell-based;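 also: simplified diagonal checkerboard screen pairing antifungals with FPPS inhibitors against Aspergillus fumigatus, with FICI calculated under the Loewe additivity model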
Method: as §1

[8] = tested on: HEK-293T cells; assay: MTT reduction cytotoxicity assay; assay type: cell-based; conditions: Homo sapiens, HEK-293T, 72 h, MTT, 72 h
[9] = tested on: Trichophyton rubrum; assay: MIC/MFC broth microdilution (CLSI); conditions: Trichophyton rubrum
Method: as §2

[10] = tested on: Cryptococcus neoformans; assay: MIC/MFC broth microdilution (CLSI); conditions: Cryptococcus neoformans;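 also: susceptibility testing followed the CLSI M27-Ed4 broth microdilution document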
Method: as §2

[11] = tested on: Cryptococcus deuterogattii; assay: checkerboard drug interaction (FICI, MICc);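 as to all read-outs here: simplified diagonal checkerboard screen pairing antifungal drugs with FPPS inhibitors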; assay type: cell-based; conditions: C. deuterogattii; for INH FD (MIC-MICc fold decrease): fold decrease of inhibitor MIC
Method: as §1

[12] = tested on: Trichophyton rubrum; assay: checkerboard drug interaction (FICI, MICc);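 also: simplified diagonal checkerboard screen pairing azole antifungals with FPPS inhibitors, FICI calculated under the Loewe additivity model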; assay type: cell-based; conditions: T. rubrum
Method: as §1

[13] = tested on: Candida glabrata; assay: MIC/MFC broth microdilution (CLSI); conditions: Nakaseomyces glabratus, CBS138;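 also: broth microdilution following CLSI M27-Ed4, MFC taken as the lowest drug level yielding no growth once MIC wells were subcultured on SDA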
Method: as §2

[14] = tested on: Aspergillus fumigatus; assay: MIC/MFC broth microdilution (CLSI); conditions: ATCC204305
Method: as §2

[15] = tested on: Aspergillus flavus; assay: checkerboard drug interaction (FICI, MICc);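 also: simplified diagonal checkerboard screen pairing azole antifungals with FPPS inhibitors, FICI calculated under the Loewe additivity model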; assay type: cell-based; set-up: INH MICc (KET:INH) / INH MICc (FLC:INH): unit not given beside the values; conditions: A. flavus
[16] = tested on: Candida albicans; assay: checkerboard drug interaction (FICI, MICc);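 as to all read-outs here: antifungal plus FPPS inhibitor combinations on Candida albicans tested by a simplified diagonal checkerboard screen, with FICI calculated under the Loewe additivity model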; assay type: cell-based; conditions: C. albicans; for INH FD (MIC-MICc fold decrease): fold decrease of inhibitor MIC
Method: as §1

[17] = tested on: Aspergillus flavus; assay: MIC/MFC broth microdilution (CLSI); conditions: ATCC204304
Method: as §2

[18] = tested on: eight fungal species; assay: MIC/MFC summary across the eight fungal species of Table 1; assay type: cell-based
Method: The antifungal activity of these compounds was evaluated according to CLSI guidelines ([16]).

[19] = tested on: eight fungal species; assay: checkerboard interaction with azoles, summary across the eight species; assay type: cell-based; conditions: geometric mean MIC in combination with azoles
Description: Synergy between lipophilic FPPS inhibitors and azole antifungals was investigated by determining the fractional inhibitory concentration index (FICI) (Fig. 2; Table S1 Fig. S1) ([17]). […]. Derivatives PLA9 and 11, and PDA9, 11, and 12 antagonized azoles in C. albicans, C. neoformans, and C. deuterogattii, yet were largely synergistic in C. glabrata and S. cerevisiae. […].

[20] = FLC:INH combination, MIC of the inhibitor in combination with FLC
[21] = FLC:INH combination, fold decrease of FLC MIC
[22] = ITR:INH combination, MIC of the inhibitor in combination with ITR
[23] = ITR:INH combination, fold decrease of ITR MIC
[24] = KET:INH combination, MIC of the inhibitor in combination with KET
[25] = KET:INH combination, fold decrease of KET MIC
[26] = Fractional Inhibitory Concentration Index, fluconazole + inhibitor
[27] = Fractional Inhibitory Concentration Index, itraconazole + inhibitor
[28] = Fractional Inhibitory Concentration Index, ketoconazole + inhibitor
[29] = MIC of the inhibitor in combination with fluconazole
[30] = MIC of the inhibitor in combination with itraconazole
[31] = MIC of the inhibitor in combination with ketoconazole
[32] = MIC-MICc fold decrease of fluconazole, negative = increase
[33] = MIC-MICc fold decrease of itraconazole, negative = increase
[34] = MIC-MICc fold decrease of ketoconazole, negative = increase
[35] = MIC-MICc fold decrease of the inhibitor, with fluconazole
[36] = MIC-MICc fold decrease of the inhibitor, with itraconazole
[37] = MIC-MICc fold decrease of the inhibitor, with ketoconazole

In the case of `CCCCCCCCCCCN1CCC[C@H]1C(=O)N[C@H](CC(=O)OC)C(=O)OC` [dmPDA11], the FICI ([1]; FLC:INH combination) is reported as 1.5, the “INH MICc” value [1, 20] is reported as 32 and the “FLC FD (MIC-MICc fold decrease)” value [1, 21] is reported as 1. The “INH FD (MIC-MICc fold decrease)” value ([1]; FLC:INH combination) was 2, the FICI ([1]; ITR:INH combination) was 0.75 and the “INH MICc” value [1, 22] was 16. The “ITR FD (MIC-MICc fold decrease)” value [1, 23] was 2, the “INH FD (MIC-MICc fold decrease)” value ([1]; ITR:INH combination) was 4 and the FICI ([1]; KET:INH combination) was 3. For the same compound, the “INH MICc” value [1, 24] was 64, the “KET FD (MIC-MICc fold decrease)” value [1, 25] was -2 and the “INH FD (MIC-MICc fold decrease)” value ([1]; KET:INH combination) was 1. For the same compound, the MFC [2] was 128 µg/mL (≈ 310 µM), the MIC [2] was 16 µg/mL (≈ 38.8 µM) and the MFC [3] was 128 µg/mL (≈ 310 µM). For the same compound, the MIC [3] was 64 µg/mL (≈ 155 µM), the FICI ([4]; FLC:INH combination) was no less than 4 and the “INH MICc” value [4, 20] was 32. The “FLC FD (MIC-MICc fold decrease)” value [4, 21] was -2, the “INH FD (MIC-MICc fold decrease)” value ([4]; FLC:INH combination) was 1 and the FICI ([4]; ITR:INH combination) was 1. For the same compound, the “INH MICc” value [4, 22] was 4, the “ITR FD (MIC-MICc fold decrease)” value [4, 23] was 2 and the “INH FD (MIC-MICc fold decrease)” value ([4]; ITR:INH combination) was 8. The FICI ([4]; KET:INH combination) was 2, the “INH MICc” value [4, 24] was 8 and the “KET FD (MIC-MICc fold decrease)” value [4, 25] was 1. For the same compound, the “INH FD (MIC-MICc fold decrease)” value ([4]; KET:INH combination) was 4, the MFC [5] was greater than 128 µg/mL and the MIC [5] was greater than 128 µg/mL. The “FICI (FLC:INH)” value [6, 26] was no less than 4, the “FICI (ITR:INH)” value [6, 27] was 2 and the “FICI (KET:INH)” value [6, 28] was 1.25. For the same compound, the “INH MICc (FLC:INH)” value [6, 29] was 256, the “INH MICc (ITR:INH)” value [6, 30] was 64 and the “INH MICc (KET:INH)” value [6, 31] was 64. For the same compound, the “FLC FD (FLC:INH)” value [6, 32] was -2, the “ITR FD (ITR:INH)” value [6, 33] was 1 and the “KET FD (KET:INH)” value [6, 34] was 4. The “INH FD (FLC:INH)” value [6, 35] was -4, the “INH FD (ITR:INH)” value [6, 36] was 1 and the “INH FD (KET:INH)” value [6, 37] was 1. The “FICI (FLC:INH)” value [7, 26] was 1.25, the “FICI (ITR:INH)” value [7, 27] was 0.53 and the “FICI (KET:INH)” value [7, 28] was 3. The “INH MICc (FLC:INH)” value [7, 29] was 64, the “INH MICc (ITR:INH)” value [7, 30] was 2 and the “INH MICc (KET:INH)” value [7, 31] was 128. The “FLC FD (FLC:INH)” value [7, 32] was 4, the “ITR FD (ITR:INH)” value [7, 33] was 2 and the “KET FD (KET:INH)” value [7, 34] was 1. The “INH FD (FLC:INH)” value [7, 35] was 1, the “INH FD (ITR:INH)” value [7, 36] was 32 and the “INH FD (KET:INH)” value [7, 37] was -2. It also gave an IC50 ([8]; HEK-293T cells, read-out: IC50) of 6.19 µg/mL (≈ 15 µM), an IC50 ([8]; read-out: HEK IC50) of 6.19 µg/mL (≈ 15 µM) and an MFC [9] greater than 128 µg/mL. For the same compound, the MIC [9] was 16 µg/mL (≈ 38.8 µM), the MFC [10] was 32 µg/mL (≈ 77.6 µM) and the MIC [10] was 16 µg/mL (≈ 38.8 µM). The FICI ([11]; FLC:INH combination) was 1.5, the “INH MICc” value [11, 20] was 32 and the “FLC FD (MIC-MICc fold decrease)” value [11, 21] was 2. The “INH FD (MIC-MICc fold decrease)” value ([11]; FLC:INH combination) was 1, the FICI ([11]; ITR:INH combination) was 2 and the “INH MICc” value [11, 22] was 32. For the same compound, the “ITR FD (MIC-MICc fold decrease)” value [11, 23] was 1, the “INH FD (MIC-MICc fold decrease)” value ([11]; ITR:INH combination) was 1 and the FICI ([11]; KET:INH combination) was 1.13. The “INH MICc” value [11, 24] was 32, the “KET FD (MIC-MICc fold decrease)” value [11, 25] was 8 and the “INH FD (MIC-MICc fold decrease)” value ([11]; KET:INH combination) was 1. For the same compound, the “FICI (FLC:INH)” value [12, 26] was no less than 4, the “FICI (ITR:INH)” value [12, 27] was 2.13 and the “FICI (KET:INH)” value [12, 28] was no less than 4. The “INH MICc (FLC:INH)” value [12, 29] was 64, the “INH MICc (ITR:INH)” value [12, 30] was 32 and the “INH MICc (KET:INH)” value [12, 31] was 128. For the same compound, the “FLC FD (FLC:INH)” value [12, 32] was 2, the “ITR FD (ITR:INH)” value [12, 33] was 8 and the “KET FD (KET:INH)” value [12, 34] was 1. The “INH FD (FLC:INH)” value [12, 35] was -4, the “INH FD (ITR:INH)” value [12, 36] was -2 and the “INH FD (KET:INH)” value [12, 37] was less than -4. For the same compound, the MFC [13] was 128 µg/mL (≈ 310 µM), the MIC [13] was 128 µg/mL (≈ 310 µM) and the MFC [14] was 128 µg/mL (≈ 310 µM). The MIC [14] was greater than 128 µg/mL, the “FICI (FLC:INH)” value [15, 26] was 0.75 and the “FICI (ITR:INH)” value [15, 27] was 1.01. The “FICI (KET:INH)” value [15, 28] was 0.31, the “INH MICc (FLC:INH)” value [15, 29] was 64 and the “INH MICc (ITR:INH)” value [15, 30] was 2. The “INH MICc (KET:INH)” value [15, 31] was 16, the “FLC FD (FLC:INH)” value [15, 32] was 2 and the “ITR FD (ITR:INH)” value [15, 33] was 1. For the same compound, the “KET FD (KET:INH)” value [15, 34] was 4, the “INH FD (FLC:INH)” value [15, 35] was 4 and the “INH FD (ITR:INH)” value [15, 36] was 128. The “INH FD (KET:INH)” value [15, 37] was 16, the FICI ([16]; FLC:INH combination) was 1.06 and the “INH MICc” value [16, 20] was 8. For the same compound, the “FLC FD (MIC-MICc fold decrease)” value [16, 21] was 1, the “INH FD (MIC-MICc fold decrease)” value ([16]; FLC:INH combination) was 16 and the FICI ([16]; ITR:INH combination) was 1.06. For the same compound, the “INH MICc” value [16, 22] was 8, the “ITR FD (MIC-MICc fold decrease)” value [16, 23] was 1 and the “INH FD (MIC-MICc fold decrease)” value ([16]; ITR:INH combination) was 16. For the same compound, the FICI ([16]; KET:INH combination) was 1.06, the “INH MICc” value [16, 24] was 8 and the “KET FD (MIC-MICc fold decrease)” value [16, 25] was 1. The “INH FD (MIC-MICc fold decrease)” value ([16]; KET:INH combination) was 16, the MFC [17] was greater than 128 µg/mL and the MIC [17] was greater than 128 µg/mL. For the same compound, the MFC ([18]; across eight species, read-out: Geometric mean MFC) was 140 µg/mL (≈ 338 µM), the MIC ([18]; geometric mean across eight species, read-out: GM fungal MIC) was 69.8 µg/mL (≈ 169 µM) and the MIC ([18]; read-out: Geometric mean MIC) was 69.8 µg/mL (≈ 169 µM). The “GM fungal MICc” value [19] was 25.4.

— publication PMC12892976, “Alkylation-based optimization of antifungal FPPS inhibitors yields a potent, broad-spectrum lipophilic zoledronate derivative” (mBio, 2025)
